In paper PMC7503767, “Alkoxyamines Designed as Potential Drugs against Plasmodium and Schistosoma Parasites” (Molecules, 2020):
Where two headings read alike, the source gives them in different places. Marks after values point to notes of the source that are not given here.

Key:
Adult S. mansoni = experiment: In vitro antischistosomal activity on adult worms; type: cell-based, Schistosoma mansoni; settings: for Time for the death of 100% worms / S. mansoni Mean Survival Time: adult S. mansoni, observation up to 8 h; for S. mansoni Mean Survival Time: single dose 100 µg/mL
Outline: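 NMRI-strain adult worms, perfused from hamsters 42–47 days post-infection, held in RPMI 1640 (25 mM Hepes) with Tween 80/DMSO vehicle at 37 °C, 5% CO2 and exposed to 100 µg/mL drug, in duplicate. Moving worms counted hourly up to 8 h; no contraction over 30 s scored dead. Mean survival time from Kaplan–Meier analysis.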

[1] = system: P. falciparum F32-ART5 (artemisinin-resistant strain); experiment: Standard chemosensitivity assay (SYBR Green I), F32-ART5; type: cell-based, Plasmodium falciparum; settings: Plasmodium falciparum, F32, 48 h, read-out: P. falciparum Strains Mean IC50, F32-ART5, 48 h; ^1 n = 1, ^2 n = 2
Protocol: (§1) F32-ART5, an artemisinin-resistant strain and F32-TEM, an artemisinin-sensitive strain, were obtained from the parental clone F32-Tanzania, respectively under regular drug pressure cycles of increasing artemisinin concentrations for 5 years and without any artemisinin pressure. After these drug pressure cycles allowing selection of the F32-ART5 strain, regular drug pressures were performed to maintain its phenotype. […] Briefly, parasites were cultured in RPMI 1640 (Fisher Scientific, Waltham, Illkirch-Graffenstaden, France) supplemented with 5% type AB human serum (Etablissement français du Sang, Toulouse, France) and adjusted at a parasitemia of 1% and 2% hematocrit with type O human at 37 °C and 5% CO2. Parasite development was daily monitored by Giemsa staining.
(§2) Briefly, for the determination of IC50 values, the chemosensitivity assay was carried out in 96-well culture plates on D-sorbitol ring-stage synchronized parasites and antiplasmodial activities were evaluated using the SYBR Green I method. Drug testing was performed in triplicates in a dose range of 5 to 7 concentrations. […] Parasites were left to proliferate with the given compounds for 48 h at 37 °C and 5% CO2. After this period, pellets were washed 3 times in sterile PBS prior to putting the plates at −20 °C overnight to lyse all red blood cells. The following day, the plates were thawed at room temperature, 100 µL of each well was transferred into a black 96-well plate to which another 100 µL of 2× PBS-diluted SYBR Green I (Sigma-Aldrich) was added and left to incubate for 2 h at room temperature prior to reading the plates on BioTek FL× 800 Microplate Fluorescence Reader (λexcitation = 485 nm, λemission = 528 nm).
(§3) IC50 values were determined using GraphPad Prism by drawing the curve % inhibition vs. [Drug] and using a four-parameter dose–response curve with the following equation: Y=Bottom+ Top−Bottom/1+x^Hill Slope/IC50Hill Slope

[2] = system: P. falciparum chloroquine-resistant strain FcB1-Columbia; experiment: Antiplasmodial screen at 10 µM and chemosensitivity assay (SYBR Green I), FcB1-Columbia; type: cell-based, Plasmodium falciparum
[3] = Homolysis of the NO–C bond measured by EPR
Protocol: Homolysis rate constants kd’ were measured by EPR and estimated using Equation (1) as reported many times in the literature. Further, Ea and kd were estimated using Equation (2). (1) ln([nitroxide]∞−[nitroxide]t/[nitroxide]∞)=−kd·t (2) Ea=−RT ln([…] kd′ )

[4] = system: P. falciparum F32-TEM (artemisinin-sensitive strain); experiment: Standard chemosensitivity assay (SYBR Green I), F32-TEM; type: cell-based, Plasmodium falciparum; settings: Plasmodium falciparum
Protocol: as §1, §2, §3

Cytotoxicity assay (MTT) = settings: African green monkey
Protocol: (§4) Vero cells were cultured in MEM (Dutscher, Brumath, France) supplemented with 10% fetal bovine serum, 1× non-essential amino acids, 100 U/mL, 100 µg/mL penicillin/streptomycin, and 2 mM L-glutamine at 37 °C in a humidified 5% CO2 atmosphere. […] At this time, each well was microscope-examined for detection of possible precipitate formation prior to remove the supernatant by flicking the plate. 100 µL of a 0.5 mg/mL PBS-dissolved MTT tetrazolium (stock solution at 5 mg/mL) was then added to each well [48]. The plates were then incubated for 1 h at 37 °C and 5% CO2 prior to removing the supernatant and adding 100 µL of DMSO. Plates were gently shaken to dissolve formazan crystals resulting from the MTT tetrazolium reduction by living cells and read at 570 nm with BioTek µQuant Microplate Spectrophotometer.

Vero cells = experiment: Cytotoxicity assay (MTT); settings: ratio cytotoxicity (Vero)/activity on Plasmodium
Protocol: as §4

[5] = set-up: method as in PMID 23051106, doi:10.1039/c2py20447a; settings: cited from earlier work
[6] = system: P. falciparum F32-TEM (artemisinin-sensitive); experiment: Recrudescence assay, F32-TEM; type: cell-based, Plasmodium falciparum; settings: 48 h treatment; artemisinin 18 µM, (RS/SR)-2F 5 µM; followed 30 days
Protocol: (§5) The lead compound, (RS/SR)-2F, was tested in a recrudescence assay, to assess cross-resistance with artemisinin, according to Ménard et al.. Briefly, F32-TEM and F32-ART5 parasites were synchronized at ring-stage by D-sorbitol treatment prior to treating them with the drug of interest for 48 h, then washed and allowed to grow in drug-free medium. Parasitemia was monitored every other day for 30 days to determine the day when parasite cultures reached the t0 initial parasitemia. […] Artemisinin was used as control to confirm differences in recrudescence times between both strains. Three independent experiments were performed for (RS/SR)-2F and artemisinin tested in parallel.

[7] = system: P. falciparum F32-ART5 (artemisinin-resistant); experiment: Recrudescence assay, F32-ART5; type: cell-based, Plasmodium falciparum; settings: artemisinin 18 µM, (RS/SR)-2F 5 µM; for Median (Range) Recrudescence Time, F32-ART5: 48 h treatment, followed 30 days
Protocol: as §5

[8] = Plasmodium falciparum, FcB1-Columbia strain, read-out: IC50 on P. falciparum
[9] = F32, 48 h, read-out: P. falciparum Strains Mean IC50, F32-TEM, 48 h, ^1 n = 1, ^2 n = 2
[10] = Cytotoxicity Mean IC50, Vero cell lines, 48 h, MTT
[11] = read-out: IC50 on P. falciparum, FcB1-Columbia strain

CC(ON1C(C)(C)CC(O)CC1(C)C)c1cc(-c2ccccn2)nc(-c2ccccn2)c1 (racemic) [(R/S)-8F, 1-(1-([2,2′:6′,2′′-Terpyridin]-4′-yl)ethoxy)-2,2,6,6-tetramethylpiperidin-4-ol]
Time for the death of 100% worms (Adult S. mansoni; 100 µg/mL): 5 h
S. mansoni Mean Survival Time (Adult S. mansoni): 5.0 ± 0.0 h
IC50 [1]: 1100 nM
IC50 [2, 8]: 140 nM
activation energy Ea ([3]; t-BuPh): 133.3 ^k kJ/mol
re-estimated homolysis rate constant kd at 120 °C ([3]; t-BuPh): 0.46 10^−3 s^−1
homolysis rate constant kd′ ([3]; t-BuPh, 111 °C): 1.9 10^−4s^−1
half-life ([3]; tert-butylbenzene, half-lifetime t1/2 at 37 °C, t-BuPh): 941 days
half-life ([3]; tert-butylbenzene, t1/2 at 37 °C): 913 days
IC50 [4, 9]: 1300 nM
IC50 ([4]; F32, read-out: IC50 on the F32 strains, F32-TEM and F32-ART5 taken together): ~1000 nM
IC50 at 48 h (Cytotoxicity assay (MTT); Vero cells): 700 ± 400 nM
Selectivity Index (Vero cells): 0.5

CCOP(=O)(OCC)[C@@H](N(O[C@H](C)c1ccncc1)C(C)(C)C)C(C)(C)C (relative stereo) [(RR/SS)-1a]
Mean (±SD) survival time – Adult S. mansoni (Adult S. mansoni; 100 µg/mL, observation up to 8 h (Table S1)): > 8 h
Time for the death of 100% worms (Adult S. mansoni; 100 µg/mL): > 8 h
S. mansoni Mean Survival Time (Adult S. mansoni): >8 h
IC50 [1]: 16000 nM
T1/2 in vitro at 37 °C ([5]; aqueous medium): 48 to 96 h
T1/2 in vitro at 37 °C ([5]; tert-butylbenzene): 408 h
IC50 [4, 9]: 15000 nM
IC50 at 48 h (Cytotoxicity assay (MTT); [10]): 17000 ± 7000 nM
Selectivity Index (Vero cells): 1

CCOP(=O)(OCC)[C@@H](N(O[C@@H](C)c1ccncc1)C(C)(C)C)C(C)(C)C (relative stereo) [(RS/SR)-1a]
S. mansoni Mean Survival Time (Adult S. mansoni): 1.2 ± 0.1 h
IC50 [1]: 11000 nM
IC50 ([2]; Plasmodium falciparum, FCB1, read-out: IC50 on P. falciparum, FcB1-Columbia strain): 3800 nM
IC50 [2, 11]: > 3000 nM
T1/2 in vitro at 37 °C ([5]; aqueous medium): 48 to 96 h
T1/2 in vitro at 37 °C ([5]; tert-butylbenzene): 408 h
IC50 [4, 9]: 7600 nM
IC50 at 48 h (Cytotoxicity assay (MTT); [10]): 28000 ± 29000 nM
Selectivity Index (Vero cells): 3

CCOP(=O)(OCC)C(N(OC(C)c1cc(-c2ccccn2)nc(-c2ccccn2)c1)C(C)(C)CO)C(C)(C)C (stereo not drawn) [(RS/SR)-2F, Diethyl(1-((1-([2,2′:6′,2′′-terpyridin]-4′-yl)ethoxy)(1-hydroxy-2-methylpropan-2-yl)amino)-2,2-dimethylpropyl)phosphonate]
Median (Range) Recrudescence Time, F32-TEM [6]: > 30 days
S. mansoni Mean Survival Time (Adult S. mansoni): 2.1 ± 0.1 h
IC50 [1]: 500 ± 100 nM
IC50 [2, 11]: 300 nM
activation energy Ea ([3]; MeOH/water 1:1 pH = 7.4): 118.2 kJ/mol
re-estimated homolysis rate constant kd at 120 °C ([3]; MeOH/water 1:1 pH = 7.4): 46.7 10^−3 s^−1
half-lifetime t1/2 at 37 °C ([3]; MeOH/water 1:1 pH = 7.4 (aqueous medium)): 64.8 h
homolysis rate constant kd′ ([3]; MeOH/water 1:1 pH = 7.4, 81 °C): 8.7 10^−4s^−1
half-life ([3]; buffer, pH 7.4, half-lifetime t1/2 at 37 °C, MeOH/water 1:1 pH = 7.4 (aqueous medium)): 2 to 4 days
half-life ([3]; half-lifetime t1/2 at 37 °C, t-BuPh): 3 to 5 days
activation energy Ea ([3]; t-BuPh): 119.7 kJ/mol
half-lifetime t1/2 at 37 °C ([3]; t-BuPh): 115 h
re-estimated homolysis rate constant kd at 120 °C ([3]; t-BuPh): 29.9 10^−3 s^−1
homolysis rate constant kd′ ([3]; t-BuPh, 81 °C): 5.3 10^−4s^−1
IC50 [4, 9]: 600 ± 100 nM
Median (Range) Recrudescence Time, F32-ART5 [7]: 16 (15–17) Days
IC50 at 48 h (Cytotoxicity assay (MTT); [10]): 800 ± 300 nM
Selectivity Index (Vero cells): 1

C[C@@H]1CC[C@H]2[C@@H](C)C(=O)O[C@@H]3O[C@@]4(C)CC[C@@H]1[C@]32OO4 [Artemisinin, reference compound]
Median (Range) Recrudescence Time, F32-TEM [6]: > 30 (16→30) Days
IC50 [1]: 20 ± 2 nM
IC50 [2, 8]: 40 ± 7 nM
IC50 [4, 9]: 20 ± 1 nM
Median (Range) Recrudescence Time, F32-ART5 [7]: 9 (7–11) Days
Mean ± SEM Difference of Recrudescence Time ([7]; F32-TEM versus F32-ART5): > 16.3 ± 3.7 days
IC50 at 48 h (Cytotoxicity assay (MTT); Vero cells): 160000 ± 12000 nM
Selectivity Index (Vero cells): 8000
